Test results taken from article PMC10582335 (Frontiers in Pharmacology, 2023).
Read-outs that look alike come from different tables or passages of the source.

What was measured:
[1] = cited from earlier work; for terminal half-life: 2008
[2] = Pharmacokinetics of rivaroxaban in rats, alone and after multiple doses of almonertinib; type: in vivo, Sprague-Dawley (SD) rats; conditions: for AUC(0-inf) / Cmax / Tmax / CL/F / MRT last / MRT inf / Vd/F: po; for CL/F: read-out: CLz/F (converted); for MRT last: read-out: MRT0-t; for MRT inf: read-out: MRT0-∞; for Vd/F: read-out: Vz/F; for half-life: read-out: t1/2z (converted)
Description: Analytes were measured using UPLC-MS/MS, which was equipped with an LC-30A ultra-performance liquid chromatography (Shimadzu, Kyoto, Japan) and Sciex Triple Quad 5,500 tandem triple quadrupole mass spectrometer (AB Sciex, Framingham, MA, United States). Chromatographic separation was performed using an XSelect HSS T3 column (2.1 mm × 100 mm, 2.5 µm, Waters, Milford, MA, United States) at 40°C by gradient elution. The mobile phase consisted of water (A) and acetonitrile (0.1% formic acid, B). The elution procedure was as follows: 0–1.0 min, 50% B; 1.0–1.5 min, 50%→98% B; 1.5–3.0 min, 98% B; 3.0–3.1 min, 98%→50% B; 3.1–4.1 min, 50% B. The flow rate was 0.35 mL min^−1, and the injection volume was 6 µL.
The positive ion mode with multiple reaction detection was used. […] The mass spectrometer conditions, including delustering potential (DP) and collision energy (CE) of the compounds, are shown in Table 1. Other parameters of the mass spectrometer were as follows: ion source gas 1, 60.0 psi; ion source gas 2, 50.0 psi; curtain gas, 25.0 psi; source temperature, 500°C; ion spray voltage, 5,500 V.
Protein precipitation was used to process the plasma samples. 5 μL of mixed IS working solution, 50 µL of the plasma samples, and 150 µL of acetonitrile were vortex-mixed for 1.0 min. Then, the mixture was centrifuged at 13,000 × g for 10 min; 100 µL of 50% acetonitrile-water was added to 100 µL of supernatant, vortex-mixed, and centrifuged again. The supernatant was transferred to a 96-well plate for sample analysis.
Healthy male Sprague-Dawley (SD) rats weighing 250 ± 20 g were purchased from Beijing Huafukang Biotechnology Co., Ltd. (Beijing, China). The license number is SCXK (Beijing) 2019–0008. The study was approved and supervised by the Animal Ethics Committee of Hebei General Hospital (Shijiazhuang, China) (No. 2023024). Adaptive feeding (sufficient food and water) was performed for 1 week before the experiment. All the rats were kept under suitable conditions (12 h dark-light diurnal cycle, appropriate temperature at 23°C–25°C, relative humidity of 50% ± 10%). All rats were fasted for 12 h before starting the experiments while still given water.
Sixty healthy rats were randomly divided into ten groups (n = 6). […] Blood samples were centrifuged at 3,500 g for 10 min, and then the supernatant was gathered and stored in a −80°C refrigerator. After, rat intestine, kidney and liver tissues were harvested for molecular analysis on the ninth or fifth day after treatment with the corresponding drugs for each group. The tissues were placed immediately at −80°C.
DAS 2.1.1 Software (Mathematical Pharmacology Professional Committee of China, Shanghai, China) was applied to calculate pharmacokinetic parameters using non-compartmental analysis. SPSS 25.0 statistical software (SPSS Inc., Chicago, IL, United States) was applied to statistically analyze the main pharmacokinetic parameters, including AUC, Cmax, Tmax, t1/2, CLz/F, Vz/F, and MRT. Statistical comparisons were conducted using a analysis of variance, t-test or nonparametric rank-sum test depending on the data type; p-value <0.05 was deemed statistically significant.

[3] = Stability in rat plasma under storage and processing conditions (QC samples, UPLC-MS/MS); conditions: n = 6
Description: The stability of plasma samples was validated by the QC samples at three concentration levels in six replicates under various storage and processing conditions: autosampler for 24 h after preprocessing, room temperature for 8 h, −80°C for 30 days, and three freeze-thaw cycles (−80°C to room temperature). The samples were verified to be stable if the deviation of the samples was not more than ±15% of the standard concentration.

[4] = male, Sprague-Dawley, rat, plasma, 1 mg/kg, rats, oral rivaroxaban 1 mg/kg after almonertinib 15 mg/kg for nine days (group 6), mean ± SD, n = 6
[5] = male, Sprague-Dawley, rat, plasma, 2 mg/kg, rats, oral rivaroxaban 2 mg/kg after almonertinib 15 mg/kg for nine days (group 5), mean ± SD, n = 6
[6] = male, Sprague-Dawley, rat, plasma, 2 mg/kg, rats, oral rivaroxaban 2 mg/kg alone (group 1), mean ± SD, n = 6
[7] = rats, oral rivaroxaban 2 mg/kg after almonertinib 15 mg/kg for nine days (group 5), mean ± SD, n = 6
[8] = rivaroxaban 1 mg/kg with multiple doses of almonertinib (group 6) compared to group 1, rats
[9] = rivaroxaban 2 mg/kg with multiple doses of almonertinib (group 5) compared to group 1, rats
[10] = Freeze-thaw stability for three times, high QC (nominal 150 almonertinib, 800 apixaban, 1,500 rivaroxaban ng/mL)
[11] = Freeze-thaw stability for three times, low QC (nominal 1 almonertinib, 2 apixaban, 10 rivaroxaban ng/mL)
[12] = Freeze-thaw stability for three times, medium QC (nominal 80 almonertinib, 400 apixaban, 800 rivaroxaban ng/mL)
[13] = Room temperature for 8 h, high QC (nominal 150 almonertinib, 800 apixaban, 1,500 rivaroxaban ng/mL)
[14] = Room temperature for 8 h, low QC (nominal 1 almonertinib, 2 apixaban, 10 rivaroxaban ng/mL)
[15] = Room temperature for 8 h, medium QC (nominal 80 almonertinib, 400 apixaban, 800 rivaroxaban ng/mL)
[16] = −80°C for 30 days, high QC (nominal 150 almonertinib, 800 apixaban, 1,500 rivaroxaban ng/mL)
[17] = −80°C for 30 days, low QC (nominal 1 almonertinib, 2 apixaban, 10 rivaroxaban ng/mL)
[18] = −80°C for 30 days, medium QC (nominal 80 almonertinib, 400 apixaban, 800 rivaroxaban ng/mL)

O=C(NC[C@H]1CN(c2ccc(N3CCOCC3=O)cc2)C(=O)O1)c1ccc(Cl)s1 [rivaroxaban, Rivaroxaban]
time of the maximal blood concentration after oral intake ([1]; (±1 h), each of two drugs, ref Steffel et al., 2021): 2 to 3 h | time to reach maximum plasma concentrations ([1]; after oral administration, ref Kubitza et al., 2005a, Kubitza et al., 2005b, Raghavan et al., 2009): 2 to 4 h | terminal half-life ([1]; elderly subjects, ref Kubitza et al., 2005a, Kubitza et al.): 11 to 13 h | terminal half-life ([1]; healthy young subjects, ref Kubitza et al., 2005a, Kubitza et al.): 5 to 9 h | increase of AUC of rivaroxaban ([2]; after a half dose reduction of rivaroxaban, multiple doses of almonertinib, rats (discussion)): ~1.9 fold | increase of AUC of rivaroxaban ([2]; co-administration with almonertinib for multiple doses, rats (discussion, AUC not specified further)): more than 3.0 fold | AUC(0-inf) [2, 4]: 2230 ng·h/mL | Cmax [2, 4]: 457 ± 101 ng/mL | Tmax [2, 4]: 2.08 ± 0.49 h | CL/F [2, 4]: 7.83 mL/min/kg | MRT last [2, 4]: 4.1 ± 0.41 h | MRT inf [2, 4]: 4.3 ± 0.47 h | Vd/F [2, 4]: 2.83 ± 0.55 L/kg | AUC(0-inf) [2, 5]: 3540 ng·h/mL | Cmax [2, 5]: 862 ± 110 ng/mL | Tmax [2, 5]: 2.21 ± 0.95 h | CL/F [2, 5]: 10 mL/min/kg | MRT last [2, 5]: 3.94 ± 0.56 h | MRT inf [2, 5]: 4.12 ± 0.6 h | Vd/F [2, 5]: 3.75 ± 0.72 L/kg | AUC(0-inf) [2, 6]: 797 ± 169 ng·h/mL | Cmax [2, 6]: 200 ± 38 ng/mL | Tmax [2, 6]: 0.92 ± 0.3 h | CL/F [2, 6]: 43.7 mL/min/kg | MRT last [2, 6]: 4.72 ± 0.57 h | MRT inf [2, 6]: 6.09 ± 1.45 h | Vd/F [2, 6]: 26.4 ± 18 L/kg | AUC(0-t) ([2]; male, Sprague-Dawley, rat, plasma, rats, oral rivaroxaban 1 mg/kg after almonertinib 15 mg/kg for nine days (group 6), mean ± SD, n = 6, read-out: AUC0-t): 2220 ng·h/mL | half-life ([2]; male, Sprague-Dawley, rat, plasma, rats, oral rivaroxaban 1 mg/kg after almonertinib 15 mg/kg for nine days (group 6), mean ± SD, n = 6): 4.3 ± 0.91 h | AUC(0-t) ([2]; male, Sprague-Dawley, rat, plasma, rats, oral rivaroxaban 2 mg/kg alone (group 1), mean ± SD, n = 6, read-out: AUC0-t): 764 ± 164 ng·h/mL | half-life ([2]; male, Sprague-Dawley, rat, plasma, rats, oral rivaroxaban 2 mg/kg alone (group 1), mean ± SD, n = 6): 6.84 ± 3.46 h | AUC(0-t) [2, 7]: 3,511.15 ± 783.84 μg/L*h | t1/2z [2, 7]: 4.47 ± 0.80 h | Tmax of rivaroxaban longer than control [2, 8]: 1.26 fold | decrease of CLz/F of rivaroxaban [2, 8]: 4.57 fold | increase of AUC0-t of rivaroxaban [2, 8]: 1.90 fold | Tmax of rivaroxaban longer than control [2, 9]: 1.40 fold | decrease of CLz/F of rivaroxaban [2, 9]: 3.37 fold | increase of AUC0-t of rivaroxaban [2, 9]: 3.60 fold | increase of AUC0-∞ of rivaroxaban [2, 9]: 3.44 fold | Stability: Accuracy (RE%) [3, 10]: −5.56% | Stability: measured concentration, Mean ± SD [3, 10]: 1,416.67 ± 48.85 ng/mL | Stability: Accuracy (RE%) [3, 11]: 1.13% | Stability: measured concentration, Mean ± SD [3, 11]: 10.11 ± 0.61 ng/mL | Stability: Accuracy (RE%) [3, 12]: −3.21% | Stability: measured concentration, Mean ± SD [3, 12]: 774.33 ± 23.28 ng/mL | Stability: Accuracy (RE%) [3, 13]: −1.11% | Stability: measured concentration, Mean ± SD [3, 13]: 1,483.33 ± 72.30 ng/mL | Stability: Accuracy (RE%) [3, 14]: 7.75% | Stability: measured concentration, Mean ± SD [3, 14]: 10.78 ± 0.59 ng/mL | Stability: Accuracy (RE%) [3, 15]: 4.19% | Stability: measured concentration, Mean ± SD [3, 15]: 833.50 ± 49.92 ng/mL | Stability: Accuracy (RE%) [3, 16]: −4.33% | Stability: measured concentration, Mean ± SD [3, 16]: 1,435.00 ± 96.07 ng/mL | Stability: Accuracy (RE%) [3, 17]: 6.83% | Stability: measured concentration, Mean ± SD [3, 17]: 10.68 ± 0.22 ng/mL | Stability: Accuracy (RE%) [3, 18]: −4.38% | Stability: measured concentration, Mean ± SD [3, 18]: 765.00 ± 58.14 ng/mL
